Results: patent publication US6992215B2, “Thiol-based NAALADase inhibitors” (Guildford Pharmaceuticals Inc., priority 2001, dated 2006)

How the values were obtained:
cortical cell cultures = assay: In Vitro Assay on Ischemia (glutamate toxicity after potassium cyanide / 2-deoxyglucose insult); format: cell-based; settings: concentration required to cause a 50% reduction in glutamate toxicity following an ischemic insult
Description: To examine the in vitro effect of the inventive compounds on ischemia, cortical cell cultures were treated with various compounds of this invention during an ischemic insult utilizing potassium cyanide and 2-deoxyglucose, and for one hour thereafter. For a description of the experimental method used, see Vornov et al., J. Neurochem., Vol. 65, No. 4, pp. […] (1995).

[1] = system: chronic constrictive injury-induced rats; assay: Neuropathic pain in CCI model (sciatic nerve ligation, thermal hyperalgesia); format: in vivo; settings: 50, 30, 10, 3, 1 or 0.3 mg/kg for 12 (or 15) days after sciatic nerve ligation, FIGS. 17-22
Description: Sciatic nerve ligation, consisting of 4 ligatures tied loosely around the sciatic nerve at 1 mm intervals proximal to the nerve trifurcation, was performed on rats. […] The rats were habituated to a Hargreaves apparatus. An infrared heat source was directed onto the dorsal surface of each rat's hindpaws and the time taken for the rat to withdraw its paws was noted. The difference in scores between the latency of the response for the paw on the operated side versus the paw on the unoperated control side was determined.
The rats were treated with either Compound 49 (10, 1 or 0.1 mg/kg) or a vehicle for 15 days after sciatic nerve ligation. Thermal pain responses were measured at days 0, 1, 5, 8, 11 and 15. The differences in scores for the rats treated with a vehicle and the rats treated with Compound 49 are graphically presented in FIGS. 13-15.
The rats were treated with either Compound 5 (50, 30, 10, 3, 1 or 0.3 mg/kg) or a vehicle for 12 (or 15) days after sciatic nerve ligation. Thermal pain responses were measured at days 0, 1, 5, 8 and 12 (and 15). The differences in scores for the rats treated with a vehicle and the rats treated with Compound 5 are graphically presented in FIGS. 17-22.
The rats received either Compound C (50 mg/kg i.p. daily) or a vehicle starting 10 days post surgery. […] Normal (unoperated) rats had approximately equal latencies for both paws. This effect was significant starting at 11 days of drug treatment and persisted through to the end of the study (for 21 days of daily dosing).

STZ-diabetic rats [2] = assay: Reversal of diabetic neuropathy in STZ model, delayed dosing; format: in vivo; settings: for neuropathic hyperalgesia (withdrawal latency difference scores) / motor nerve conduction velocity: daily p.o.; for neuropathic hyperalgesia (withdrawal latency difference scores): treatment started 5 weeks post STZ, within two weeks of treatment, FIG. 31; for motor nerve conduction velocity: within 8 weeks of dosing, persisted through 12 weeks, FIG. 32
Description: Rats (200 to 225 g) were injected with STZ (70 mg/kg) into the tail vein. Diabetes (>350 mg/dl) was confirmed in all rats, 4 weeks after STZ administration. Rats were left untreated until 35 to 49 days after STZ. Compound D (1, 3, or 10 mg/kg), Compound E (10 mg/kg), or vehicle were dosed daily p.o. following confirmation of hyperalgesia and/or nerve conduction velocity deficits. In separate experiments, onset of treatment was delayed until 60 to 90 days after STZ administration. Nerve conduction velocity or withdrawal response to thermal stimulation of hind paws was measured at intervals, usually bi-weekly for thermal response and monthly for nerve conduction velocity.
Sensory and motor nerve conduction velocities were evaluated using the method of De Koning and Gispen (Peptides 8: 415–422, 1987). Electrophysiological evaluation was carried out within one hour of dosing. Animals were anesthetized with isoflurane and stimulating needle electrodes were inserted close to the sciatic nerve at the sciatic notch and the tibial nerve near the ankle. Recording electrodes were placed over the foot muscles. Stimuli were applied and responses recorded. Motor and sensory nerve conduction velocities were calculated by measuring the distance between the sciatic notch and ankle sites, and the latency between the M-wave and the H-reflex.
Animals were acclimated to the apparatus for at least 5 min. An infra-red source was placed under below the plantar surface of the rat hind-paw. The intensity of the source was adjusted so that latency for normal rats was about 10 secs. Animals were tested for thermal response latency according to the method of Hargreaves et al (Pain 77–88, 1988). Each animal was tested 8 times (4 each hind limb) and the latency of response recorded automatically to nearest 0.1 sec. An average of the last 4 measurements for each paw was calculated (8 total measurements) and noted for each rat.

STZ-diabetic rats [3] = assay: Diabetic neuropathy in STZ model (motor and sensory nerve conduction velocity); format: in vivo
Description: Motor and sensory nerve conduction velocity was also measured in STZ-diabetic animals after 4, 8 and 12 weeks of treatment (see De Koning et al., supra, for a description of the experimental method). Briefly, stimulating needle electrodes were inserted close to the sciatic and tibial nerves with recording electrodes being placed subcutaneously over the distal foot muscles, in anesthetized rats.

BB/W diabetic rats = assay: Progression of neuropathic pain and nerve conduction deficits in BB/W model; format: in vivo
Description: Male BB/W rats (BRI, Mass) spontaneously develop a cell mediated autoimmune destruction of pancreatic B cells, resulting in onset of insulin-dependent (Type I) diabetes (Guberski 1994). […] This renders them valuable for experimental trials of new compounds for future treatments of this major disorder. In the present study, Compound D and Compound A were examined for their ability to alter the progression of diabetic neuropathy. […] Another group of non-diabetic rats also receiving vehicle were tested. All animals were continuously monitored for body weight, urine volume, blood sugar and glycated haemoglobin. In the first month of the study, all animals were tested for thermal nociception in a Hargreaves apparatus, weekly. After the first month this was done biweekly and then monthly. The testing consists of directing an infrared heat source onto the dorsal surface of the rat hindpaw and noting the time taken for the animal to remove its paw (see Hargreaves et al., supra, for a description of the experimental method). Each animal was tested 8 times and the mean withdrawal latency noted.
Nerve conduction velocity was also measured every two weeks through the first eight weeks of treatment and every month thereafter through to the six months of treatment (see De Koning et al., Peptides, Vol. 8, No. 3, pp. 415–22 (1987) for a description of the experimental method). […] This was apparent starting at 8 weeks of treatment and persisted to a similar degree through to the six month termination point of the study.

[4] = system: STZ-induced diabetic rats; assay: Neuropathic pain in STZ model (Hargreaves thermal nociception); format: in vivo, Sprague-Dawley rats; settings: 10 mg/kg i.p. daily, treatment started 45 days post-STZ
Description: Male Sprague-Dawley rats (200–225 g) were rendered diabetic by intravenous administration of streptozotocin (“STZ”, 70 mg/kg in phosphate buffered saline). Diabetic animals were divided into five groups: one group receiving Compound A (10 mg/kg or 1 mg/kg), Compound D (10 mg/kg or 1 mg/kg) or vehicle. Another group of animals (non-STZ treated) served as non-diabetic controls. Drug/vehicle treatment was started in diabetic animals 45 days post-STZ administration. STZ-induced diabetic rats were tested for sensitivity to a heat source as soon as blood glucose levels rose to 320 mg/dl or above (30 days post STZ). The rats were then acclimated to a Hargreaves apparatus and thermal nociception was monitored using an infrared heat source directed into the dorsal surface of the hindpaw, and the time taken for the animal to remove its paw noted to the nearest 0.1 seconds (see Hargreaves et al., supra, for detailed experimental method). The intensity of the beam source was adjusted such that the mean latency for control animals (non-STZ treated) was approximately 10 seconds. Each animal was tested 8 times and the mean difference score (between mean non-diabetic control latency and mean diabetic latency) are graphically presented in FIGS. 7A and 7B.

## O=C(O)c1cccc(CC(CCCS)C(=O)O)c1 (stereo not drawn) [Compound 5, 3-carboxy-alpha-(3-mercaptopropyl)-benzenepropanoic acid]
Cortical cell cultures
  EC50: 6.5 nM
[1]
  difference in scores between the operated and unoperated paws: normalized the difference in scores
STZ-diabetic rats [2]
  neuropathic hyperalgesia (withdrawal latency difference scores): reversed towards normal
  motor nerve conduction velocity: reversed the motor nerve conduction velocity towards normal

## O=C(O)CCC(CCS)C(=O)O (stereo not drawn) [Compound D, 2-(2-sulfanylethyl)pentanedioic acid]
STZ-diabetic rats [3]; 10 mg/kg treatment group
  treatment time after which increase of motor and sensory nerve conduction velocities was significant: 12 weeks
STZ-diabetic rats [3]; either dose (10 mg/kg or 1 mg/kg), FIGS. 10A and 10B
  motor and sensory nerve conduction velocities versus diabetic controls: increased both motor and sensory nerve conduction velocities
BB/W diabetic rats; 10 mg/kg daily, from 8 weeks to six months of treatment, FIG. 12
  nerve conduction velocity deficits versus diabetic vehicle controls: significantly less severe nerve conduction deficits
BB/W diabetic rats; 10 mg/kg i.p. daily, starting after 4 weeks and through six months of treatment, FIG. 11
  withdrawal latency versus diabetic vehicle-treated rats: longer withdrawal latencies
STZ-diabetic rats [2]
  neuropathic hyperalgesia (withdrawal latency difference scores): reversed towards normal
  motor nerve conduction velocity: reversed the motor nerve conduction velocity towards normal
STZ-diabetic rats [2]; lower doses 1 and 3 mg/kg, treatment 7 weeks post STZ, even 8 weeks after dosing
  motor nerve conduction: remained unimproved
STZ-diabetic rats [2]; lower doses 1 and 3 mg/kg, treatment 7 weeks post STZ, within 4 weeks of treatment
  sensory nerve conduction: significantly improved towards normal
STZ-diabetic rats [2]; lower doses 1 and 3 mg/kg, treatment initiated 7 weeks post STZ, FIG. 34
  neuropathic pain abnormalities: Significant reduction in pain abnormalities
STZ-diabetic rats [2]; rats left untreated until 60 days after STZ, external CRO, FIGS. 37 and 38
  sensory and motor nerve conduction velocity deficits: Partial reversal of both deficits
[4]
  hyperalgesic response (withdrawal latency difference score): completely reversed
